Results published in paper PMC9389588, “1,6-epi-Cyclophellitol Cyclosulfamidate Is a Bona Fide Lysosomal α-Glucosidase Stabilizer for the Treatment of Pompe Disease” (Journal of the American Chemical Society, 2022).

Experiments:
[1] = tested on: GAA activity in zebrafish larvae; assay: in vivo stabilization of rhGAA in zebrafish embryo, GAA activity in homogenates; conditions: co-injected with Myozyme 34 pmol, 5 dpf
[2] = target: T1, sucrase-isomaltase (SI) (Mus musculus, UniProt B5THE3); assay: competitive ABPP in mouse intestine homogenates, SI; type: biochemical; conditions: mouse duodenum extracts; 0-100 μM; 30 min 37 °C
T1 construct: cABPP in mouse intestine homogenates; from tissue; host or cells: duodenum of wild type mice
T1 sequence (B5THE3 1-1818): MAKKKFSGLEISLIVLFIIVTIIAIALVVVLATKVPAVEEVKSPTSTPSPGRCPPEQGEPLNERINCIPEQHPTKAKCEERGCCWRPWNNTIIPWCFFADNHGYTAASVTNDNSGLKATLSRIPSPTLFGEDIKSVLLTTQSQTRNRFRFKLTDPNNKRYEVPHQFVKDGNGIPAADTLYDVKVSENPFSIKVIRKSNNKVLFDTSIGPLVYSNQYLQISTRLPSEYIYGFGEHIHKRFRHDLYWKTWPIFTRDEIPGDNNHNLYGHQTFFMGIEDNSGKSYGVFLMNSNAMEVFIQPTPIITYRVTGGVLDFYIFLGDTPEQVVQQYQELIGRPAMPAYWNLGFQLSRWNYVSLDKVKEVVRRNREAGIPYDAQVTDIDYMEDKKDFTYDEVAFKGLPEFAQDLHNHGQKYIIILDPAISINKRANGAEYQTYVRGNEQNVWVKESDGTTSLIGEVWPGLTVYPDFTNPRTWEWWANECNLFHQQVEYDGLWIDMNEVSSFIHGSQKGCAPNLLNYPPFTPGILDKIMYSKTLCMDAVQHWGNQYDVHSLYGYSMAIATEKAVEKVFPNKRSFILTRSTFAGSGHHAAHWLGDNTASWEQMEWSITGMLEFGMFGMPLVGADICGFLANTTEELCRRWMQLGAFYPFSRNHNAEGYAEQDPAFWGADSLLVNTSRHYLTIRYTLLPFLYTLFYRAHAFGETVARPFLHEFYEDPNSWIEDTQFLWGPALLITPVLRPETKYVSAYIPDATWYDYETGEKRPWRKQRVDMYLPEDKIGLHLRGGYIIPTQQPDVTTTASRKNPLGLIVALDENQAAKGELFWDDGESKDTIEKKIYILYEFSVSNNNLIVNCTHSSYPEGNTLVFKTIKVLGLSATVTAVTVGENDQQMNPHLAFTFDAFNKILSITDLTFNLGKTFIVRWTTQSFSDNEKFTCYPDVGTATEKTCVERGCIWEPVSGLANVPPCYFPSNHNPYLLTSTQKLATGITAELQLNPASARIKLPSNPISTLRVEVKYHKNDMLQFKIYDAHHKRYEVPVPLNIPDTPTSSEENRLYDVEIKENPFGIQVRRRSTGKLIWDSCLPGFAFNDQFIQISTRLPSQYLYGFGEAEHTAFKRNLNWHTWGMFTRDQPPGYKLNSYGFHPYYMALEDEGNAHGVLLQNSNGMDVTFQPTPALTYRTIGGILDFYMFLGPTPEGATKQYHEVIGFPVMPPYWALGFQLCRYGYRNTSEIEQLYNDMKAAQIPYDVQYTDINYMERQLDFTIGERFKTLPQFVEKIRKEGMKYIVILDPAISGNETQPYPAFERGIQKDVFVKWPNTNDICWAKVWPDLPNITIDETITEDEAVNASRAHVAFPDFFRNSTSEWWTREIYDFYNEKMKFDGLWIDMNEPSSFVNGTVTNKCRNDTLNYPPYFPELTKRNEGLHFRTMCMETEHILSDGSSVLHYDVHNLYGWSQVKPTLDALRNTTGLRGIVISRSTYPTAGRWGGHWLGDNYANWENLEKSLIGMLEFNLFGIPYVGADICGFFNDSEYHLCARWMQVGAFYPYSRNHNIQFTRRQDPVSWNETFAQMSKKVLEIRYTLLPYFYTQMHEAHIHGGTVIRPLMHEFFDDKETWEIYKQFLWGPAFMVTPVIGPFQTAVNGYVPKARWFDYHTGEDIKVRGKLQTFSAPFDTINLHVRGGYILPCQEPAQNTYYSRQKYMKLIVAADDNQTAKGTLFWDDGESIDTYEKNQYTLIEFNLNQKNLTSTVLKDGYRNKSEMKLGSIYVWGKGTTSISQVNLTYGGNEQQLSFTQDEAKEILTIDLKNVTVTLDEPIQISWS
Description: Inhibition of gastrointestinal α-glucosidases with antidiabetic drugs has been related to undesired effects, including flatulence, diarrhea, and abdominal pain. Cyclosulfamidate 4 inhibits SI and MGAM but does so about a 100-fold less potently than it inhibits rhGAA or GANAB, and we conclude that it has a more beneficial therapeutic window in this regard compared to NB-DNJ 2.
Figure 2 Competitive ABPP (cABPP) in mouse intestine homogenates. […]
After preincubation, 25 μL of E+I mixture was added to a 96 wells plate and 100 μL substrate solution in the appropriate buffer was subsequently added. GAA activity was measured using final concentrations of 47 nM enzyme (Myozyme) and 3.0 mM 4-MU-α-D-glucopyranoside, for 30 minutes at 37 ℃. GANAB activity was measured using wt fibroblasts and 2.4 mM 4-MU-α-D-glucopyranoside, for 2 h at 37 ℃. GBA1 activity was measured using final concentrations of 0.7 nM enzyme (Cerezyme) and 3.0 mM 4-methylumbeliferone(4-MU)-β-D-glucopyranoside, for 30 min at 37 ℃. GBA2 residual activity was measured using cellular homogenates of HEK293T over-expressing GBA2 pre-incubated for 30 min with a GBA1 inhibitor (1 µM 37 (ME656), see Figure S1 for chemical structure), and further incubation with 3.0 mM 4-methylumbeliferone(4MU)-β-D-glucopyranoside […]

O=S1(=O)N[C@@H]2[C@H](O)[C@@H](O)[C@H](O)[C@@H](CO)[C@@H]2O1 [compound 4, 1,6-epi-cyclophellitol cyclosulfamidate]
increase in GAA activity compared to zebrafish injected with only Myozyme ([1]; 1:4 Myozyme:chaperone ratio): ~25% | change in GAA activity at high concentration ([1]; 1:10 ratio): small decrease in GAA activity | inhibition of SI by cABPP, in words [2]: inhibit
